Among the data in patent publication US7964607B2, “Pyrazolo[3,4-d]pyrimidine compounds” (Pfizer Inc., priority 2007, dated 2011) are IC50 values, retold here.

The structures appear in SMILES notation.

The target of the first test is T1, human recombinant PDE9 enzyme (Homo sapiens, UniProt O76083).
T1 construct: made in house; host or cells: SF-9 insect cells
T1 sequence (O76083 whole entry): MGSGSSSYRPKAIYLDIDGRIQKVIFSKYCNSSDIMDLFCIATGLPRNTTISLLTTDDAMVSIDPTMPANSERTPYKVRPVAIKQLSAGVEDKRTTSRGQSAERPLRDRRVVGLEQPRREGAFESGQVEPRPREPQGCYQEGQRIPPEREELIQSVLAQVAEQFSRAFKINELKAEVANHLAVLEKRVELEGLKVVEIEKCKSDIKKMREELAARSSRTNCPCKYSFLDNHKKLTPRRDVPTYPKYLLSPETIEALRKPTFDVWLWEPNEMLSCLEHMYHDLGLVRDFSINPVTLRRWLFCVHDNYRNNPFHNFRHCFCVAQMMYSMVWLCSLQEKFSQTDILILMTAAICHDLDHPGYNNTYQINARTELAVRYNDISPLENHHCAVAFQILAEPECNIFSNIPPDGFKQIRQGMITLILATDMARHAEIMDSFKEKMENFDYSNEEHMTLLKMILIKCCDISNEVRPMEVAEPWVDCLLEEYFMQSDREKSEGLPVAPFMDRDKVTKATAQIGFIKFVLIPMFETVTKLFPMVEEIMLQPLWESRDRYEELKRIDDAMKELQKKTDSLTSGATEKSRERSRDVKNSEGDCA
Description: Phosphodiesterase 9 (PDE9) inhibitory activity, Scintillation Proximity (SPA) assay. The class given is biochemical.
Conditions: not given
How it is done: Phosphodiesterase 9 (PDE9) Inhibitory Activity The PDE9 assay was performed using the Phosphodiesterase Scintillation Proximity (SPA) assay (GE Healthcare Life Sciences). […] The human recombinant PDE9 enzyme was generated in SF-9 cells, the cell pellets were sonicated in buffer (20 mM TRIS, 2 mM benzamidine, 1 mM EDTA, 250 mM sucrose, 100 μM PMSF, pH 7.5 with HCl), centrifuged at 40,000×g for 20 min at 4° C. The supernatants were stored at −80° C. […] Test compounds were dissolved in DMSO, diluted in DI H2O and serially diluted in 20% DMSO/80% H2O, for a final concentration of 2% DMSO. For the assay the PDE9 was diluted with assay buffer such that 20% or less of the substrate was hydrolyzed to 5′GMP. Each assay well contained 10 μl of test compound or solvent, 40 μl of [^3H]CGMP and 50 μl of enzyme, background was determined by a high concentration of a PDE inhibitor. The assay was initiated with the addition of the enzyme and carried out at room temperature for 30 min. […] The plates were sealed, vortexed, allowed to set for >300 min, then counted in a Wallac TriLux MicroBeta LSC.
For `CCC1CN(Cc2ccccc2)CC1c1nc2c(cnn2C2CCOCC2)c(=O)[nH]1` (racemic) [97(a), 6-[(3,4-trans)-1-benzyl-4-ethylpyrrolidin-3-yl]-1-(tetrahydro-2H-pyran-4-yl)-1,5-dihydro-4H-pyrazolo[3,4-d]pyrimidin-4-one], the IC50 stood at 7.2 nM.

The same test, now with this note: human recombinant PDE9 from SF-9 cells; 50 nM [3H]cGMP; room temperature, 30 min; Examples 3-114; read-out: G5678A (U): IC50.
For the molecule `C[C@@H]1CN(c2nccc(C(F)(F)F)n2)C[C@H]1c1nc2c(cnn2C2CCCC2)c(=O)[nH]1` (racemic) [Example 4, 1-cyclopentyl-6-{(3,4-trans)-4-methyl-1-[4-(trifluoromethyl)pyrimidin-2-yl]pyrrolidin-3-yl}-1,5-dihydro-4H-pyrazolo[3,4-d]pyrimidin-4-one], the IC50 is 624 nM.

As for `C[C@@H]1CN(c2ncccn2)C[C@H]1c1nc2c(cnn2C2CCCC2)c(=O)[nH]1` (racemic) [Example 5, 1-cyclopentyl-6-[(3,4-trans)-4-methyl-1-pyrimidin-2-ylpyrrolidin-3-yl]-1,5-dihydro-4H-pyrazolo[3,4-d]pyrimidin-4-one], the concentration for half-maximal inhibition (IC50) was 558 nM.

For `C[C@@H]1CN(C(=O)c2ccccc2)C[C@H]1c1nc2c(cnn2C2CCCC2)c(=O)[nH]1` (racemic) [Example 6, 6-[(3,4-trans)-1-benzoyl-4-methylpyrrolidin-3-yl]-1-cyclopentyl-1,5-dihydro-4H-pyrazolo[3,4-d]pyrimidin-4-one], the IC50 was found to be 57.1 nM.

On to `C[C@@H]1CN(Cc2cccnc2)C[C@H]1c1nc2c(cnn2C2CCCC2)c(=O)[nH]1` (racemic) [Example 7, 1-cyclopentyl-6-[(3,4-trans)-4-methyl-1-(pyridin-3-ylmethyl)pyrrolidin-3-yl]-1,5-dihydro-4H-pyrazolo[3,4-d]pyrimidin-4-one], for which the IC50 is 11.6 nM.

Consider `C[C@@H]1CN(Cc2cccc(C(F)(F)F)c2)C[C@H]1c1nc2c(cnn2C2CCCC2)c(=O)[nH]1` (racemic) [Example 8, 1-cyclopentyl-6-{(3,4-trans)-4-methyl-1-[3-(trifluoromethyl)benzyl]pyrrolidin-3-yl}-1,5-dihydro-4H-pyrazolo[3,4-d]pyrimidin-4-one], for which the IC50 is 11.2 nM.

With `C[C@@H]1CN(Cc2ccc3ccccc3n2)C[C@H]1c1nc2c(cnn2C2CCCC2)c(=O)[nH]1` (racemic) [Example 9, 1-cyclopentyl-6-[(3,4-trans)-4-methyl-1-(quinolin-2-ylmethyl)pyrrolidin-3-yl]-1,5-dihydro-4H-pyrazolo[3,4-d]pyrimidin-4-one], the half-maximal inhibitory concentration (IC50) was found to be 2.84 nM.

Take `C[C@@H]1CN(Cc2ccnc3ccccc23)C[C@H]1c1nc2c(cnn2C2CCCC2)c(=O)[nH]1` (racemic) [Example 10, 1-cyclopentyl-6-[(3,4-trans)-4-methyl-1-(quinolin-4-ylmethyl)pyrrolidin-3-yl]-1,5-dihydro-4H-pyrazolo[3,4-d]pyrimidin-4-one]: the IC50 was 4.98 nM.

For `C[C@@H]1CN(Cc2ccc(C(F)(F)F)nc2)C[C@H]1c1nc2c(cnn2C2CCCC2)c(=O)[nH]1` (racemic) [Example 11, 1-cyclopentyl-6-[(3,4-trans)-4-methyl-1-{[6-(trifluoromethyl)pyridin-3-yl]methyl}pyrrolidin-3-yl]-1,5-dihydro-4H-pyrazolo[3,4-d]pyrimidin-4-one], the half-maximal inhibitory concentration (IC50) is 18.9 nM.

Turning to `C[C@@H]1CN(Cc2cnc3ccccc3n2)C[C@H]1c1nc2c(cnn2C2CCCC2)c(=O)[nH]1` (racemic) [Example 12, 1-cyclopentyl-6-[(3,4-trans)-4-methyl-1-(quinoxalin-2-ylmethyl)pyrrolidin-3-yl]-1,5-dihydro-4H-pyrazolo[3,4-d]pyrimidin-4-one], the IC50 was 7.23 nM.

Take `C[C@@H]1CN(Cc2ccc3nccnc3c2)C[C@H]1c1nc2c(cnn2C2CCCC2)c(=O)[nH]1` (racemic) [Example 13, 1-cyclopentyl-6-[(3,4-trans)-4-methyl-1-(quinoxalin-6-ylmethyl)pyrrolidin-3-yl]-1,5-dihydro-4H-pyrazolo[3,4-d]pyrimidin-4-one]: the IC50 is 6.61 nM.

As to `C[C@@H]1CN(Cc2cncnc2)C[C@H]1c1nc2c(cnn2C2CCCC2)c(=O)[nH]1` (racemic) [Example 14, 1-cyclopentyl-6-[(3,4-trans)-4-methyl-1-(pyrimidin-5-ylmethyl)pyrrolidin-3-yl]-1,5-dihydro-4H-pyrazolo[3,4-d]pyrimidin-4-one], the IC50 was 26 nM.

Regarding `Cc1ncccc1CN1C[C@@H](C)[C@H](c2nc3c(cnn3C3CCCC3)c(=O)[nH]2)C1` (racemic) [Example 17, 1-cyclopentyl-6-{(3,4-trans)-4-methyl-1-[(2-methylpyridin-3-yl)methyl]pyrrolidin-3-yl}-1,5-dihydro-4H-pyrazolo[3,4-d]pyrimidin-4-one], the IC50 was determined as 16.2 nM.

For `C[C@@H]1CN(Cc2cccc3cccnc23)C[C@H]1c1nc2c(cnn2C2CCCC2)c(=O)[nH]1` (racemic) [Example 18, 1-cyclopentyl-6-[(3,4-trans)-4-methyl-1-(quinolin-8-ylmethyl)pyrrolidin-3-yl]-1,5-dihydro-4H-pyrazolo[3,4-d]pyrimidin-4-one], the IC50 turned out to be 8.26 nM.

On to `C[C@@H]1CN(Cc2cnc3ccccc3c2)C[C@H]1c1nc2c(cnn2C2CCCC2)c(=O)[nH]1` (racemic) [Example 19, 1-cyclopentyl-6-[(3,4-trans)-4-methyl-1-(quinolin-3-ylmethyl)pyrrolidin-3-yl]-1,5-dihydro-4H-pyrazolo[3,4-d]pyrimidin-4-one], for which the IC50 came out at 2.68 nM.

`Cc1ccc(CN2C[C@@H](C)[C@H](c3nc4c(cnn4C4CCCC4)c(=O)[nH]3)C2)cn1` (racemic) [Example 20, 1-cyclopentyl-6-{(3,4-trans)-4-methyl-1-[(6-methylpyridin-3-yl)methyl]pyrrolidin-3-yl}-1,5-dihydro-4H-pyrazolo[3,4-d]pyrimidin-4-one]: the IC50 was determined as 7.06 nM.

Take `CC(C)[C@@H]1CN(Cc2ccccc2)C[C@H]1c1nc2c(cnn2C2CCCC2)c(=O)[nH]1` (racemic) [Example 21, 6-[(3,4-trans)-1-benzyl-4-isopropylpyrrolidin-3-yl]-1-cyclopentyl-1,5-dihydro-4H-pyrazolo[3,4-d]pyrimidin-4-one]: the IC50 was found to be 34.5 nM.

For the molecule `Cc1nn(C2CCCC2)c2nc([C@@H]3CN(Cc4ccccc4)C[C@H]3C)[nH]c(=O)c12` (racemic) [Example 22, 6-[(3,4-trans)-1-benzyl-4-methylpyrrolidin-3-yl]-1-cyclopentyl-3-methyl-1,5-dihydro-4H-pyrazolo[3,4-d]pyrimidin-4-one], the IC50 was found to be 43.6 nM.

`C[C@@H]1CN(CCc2ccccc2)C[C@H]1c1nc2c(cnn2C2CCCC2)c(=O)[nH]1` (racemic) [Example 24, 1-cyclopentyl-6-[(3,4-trans)-4-methyl-1-(2-phenylethyl)pyrrolidin-3-yl]-1,5-dihydro-4H-pyrazolo[3,4-d]pyrimidin-4-one]: the IC50 turned out to be 119 nM.

Turning to `COc1ccc(CN2C[C@@H](C)[C@H](c3nc4c(cnn4C4CCCC4)c(=O)[nH]3)C2)cn1` (racemic) [Example 25, 1-cyclopentyl-6-{(3,4-trans)-1-[(6-methoxypyridin-3-yl)methyl]-4-methylpyrrolidin-3-yl}-1,5-dihydro-4H-pyrazolo[3,4-d]pyrimidin-4-one], the IC50 turned out to be 9.07 nM.

As to `C[C@@H]1CN(Cc2ccccn2)C[C@H]1c1nc2c(cnn2C2CCCC2)c(=O)[nH]1` (racemic) [Example 26, 1-cyclopentyl-6-[(3,4-trans)-4-methyl-1-(pyridin-2-ylmethyl)pyrrolidin-3-yl]-1,5-dihydro-4H-pyrazolo[3,4-d]pyrimidin-4-one], the IC50 was determined as 11.4 nM.

Regarding `Cc1cccnc1CN1C[C@@H](C)[C@H](c2nc3c(cnn3C3CCCC3)c(=O)[nH]2)C1` (racemic) [Example 27, 1-cyclopentyl-6-{(3,4-trans)-4-methyl-1-[(3-methylpyridin-2-yl)methyl]pyrrolidin-3-yl}-1,5-dihydro-4H-pyrazolo[3,4-d]pyrimidin-4-one], the IC50 came to 7.45 nM.

As for `CC[C@@H]1CN(Cc2ccccc2)C[C@H]1c1nc2c(cnn2C2CCCC2)c(=O)[nH]1` (racemic) [Example 28, 6-[(3,4-trans)-1-benzyl-4-ethylpyrrolidin-3-yl]-1-cyclopentyl-1,5-dihydro-4H-pyrazolo[3,4-d]pyrimidin-4-one], the IC50 worked out at 6.86 nM.

Turning to `O=c1[nH]c([C@@H]2CN(Cc3ccccc3)C[C@H]2C2CC2)nc2c1cnn2C1CCCC1` (racemic) [Example 29, 6-[(3,4-trans)-1-benzyl-4-cyclopropylpyrrolidin-3-yl]-1-cyclopentyl-1,5-dihydro-4H-pyrazolo[3,4-d]pyrimidin-4-one], the IC50 is 2.17 nM.

`CC(C)n1ncc2c(=O)[nH]c([C@@H]3CN(Cc4ccc5ccccc5n4)C[C@H]3C)nc21` (racemic) [Example 32, 1-isopropyl-6-[(3,4-trans)-4-methyl-1-(quinolin-2-ylmethyl)pyrrolidin-3-yl]-1,5-dihydro-4H-pyrazolo[3,4-d]pyrimidin-4-one]: the IC50 was 5.19 nM.

Consider `CC(C)n1ncc2c(=O)[nH]c([C@@H]3CN(Cc4ccc5nccnc5c4)C[C@H]3C)nc21` (racemic) [Example 33, 1-isopropyl-6-[(3,4-trans)-4-methyl-1-(quinoxalin-6-ylmethyl)pyrrolidin-3-yl]-1,5-dihydro-4H-pyrazolo[3,4-d]pyrimidin-4-one], for which the IC50 stood at 6.29 nM.
